# Tested on: lashes and adjacent hairs of patients having glaucoma
# Assay: Clinical observation of lashes and adjacent hairs in glaucoma patients treated in one eye
# Type: in vivo, human
# Text: In the course of treating patients having glaucoma, treatment may only be appropriate in one eye. […] The lash appearance on the lids of the treated eyes would have appeared quite attractive if it represented a bilateral phenomenon. As a result of its asymmetric nature, the long lashes on one side could be construed as disturbing from a cosmetic standpoint. A systemic examination was preformed as a result of the asymmetric phenomenon. It soon became apparent that this altered appearance was not an isolated finding.
# The changes in the lashes were apparent on gross inspection in several patients once attention was focused on the issue. In those with light colored hair and lashes, the differences were only seen easily with the aid of the high magnification and lighting capabilities of the slit lamp biomicroscope. In the course of glaucoma follow-up examination, attention is generally immediately focused on the eye itself. As a result of the high power magnification needed only one eye is seen at a time and the eye is seen at a high enough power that the lashes are not in focus. At these higher powers, any lash asymmetry between the two eyes is not likely to be noticed except by careful systematic comparison of the lashes and adjacent hairs of the eyelids of the two eyes. […]
structure (smiles),measurement,setting,value
CCNC(=O)CCC/C=C\C[C@@H]1[C@@H](/C=C/[C@@H](O)CCc2ccccc2)[C@H](O)C[C@@H]1O [bimatoprost],"lash appearance, treated eye versus non-treated eye",a patient treated in one eye,"longer, thicker, and fuller in the treated eye than in the non-treated eye"
same,differences in lashes and adjacent hairs of the treated side,all patients taking the drug on a unilateral basis for longer than 6 months,Definite differences could be identified to varying degrees
